16 compounds from ChEMBL document CHEMBL1125172, “Voronoi binding site model of a polycyclic aromatic hydrocarbon binding protein” (J Med Chem, 1990) can be followed below.
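Further: competitive displacement of radiolabeled [3H]benzo[a]pyrene from its binding site on the protein taken from mouse liver.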

The experiment has as its system Polycyclic aromatic hydrocarbon binding protein. The settings on record: Mus musculus.
Description: Competition for [3H]benzo[a]pyrene-binding site of polycyclic aromatic hydrocarbon binding protein (PBP) from mouse liver
`O[C@H]1C=C2c3ccccc3-c3cccc(c32)[C@@H]1O` displayed a Delta Gm of 17.7.

In turn, `c1ccc2c(c1)-c1cccc3cccc-2c13` gave a Delta Gm of 17.8.

The compound `c1ccc2c(c1)ccc1c3ccccc3ccc21` registered a Delta Gm of 17.9.

In turn, `Nc1cccc2cc3ccccc3cc12` yielded a Delta Gm of 15.2.

`O[C@@H]1C=Cc2cc3ccc4cccc5ccc(c2[C@H]1O)c3c45` gave a Delta Gm of 18.9.

The compound `O[C@H]1c2cccc3ccc4c5ccccc5cc(c4c23)[C@@H]1O` showed a Delta Gm of 17.4.

Turning to `O[C@H]1C=Cc2c(cc3ccc4cccc5ccc2c3c45)[C@@H]1O`, the Delta Gm came to 18.4.

On to `Cc1ccc2cc3c(ccc4ccccc43)c3c2c1CC3`, for which the Delta Gm was found to be 17.4.

Compound `Nc1cccc2ccccc12` had a Delta Gm of 14.4.

As for `Nc1ccc2c(c1)Cc1ccccc1-2`, the Delta Gm stood at 11.9.

Take `C1=Cc2cc3cccc4ccc5ccc1c2c5c43`: the Delta Gm came to 15.8.

The compound `c1ccc2cc3c4ccccc4c4ccccc4c3cc2c1` registered a Delta Gm of 18.6.

`Oc1ccc2cc3ccc4cccc5ccc(c2c1)c3c45` showed a Delta Gm of 18.3.

With `Nc1cc2ccccc2c2ccccc12`, the Delta Gm came to 15.2.

`c1cc2ccc3cccc4ccc(c1)c2c34` registered a Delta Gm of 16.3.

`c1ccc2c(c1)cc1ccc3cccc4ccc2c1c34`: the Delta Gm worked out at 19.
